Test results: PMC5324060, “Evolutionary, computational, and biochemical studies of the salicylaldehyde dehydrogenases in the naphthalene degradation pathway” (Scientific Reports, 2017)

Assays:
Type in all cases: biochemical
SALDan N149A = biological target: T1, SALDan N149A (Alteromonas naphthalenivorans, UniProt F5Z5S7, N149A); assay: Kinetics assay of SALDan mutant N149A
T1 sequence (F5Z5S7 1-483 N149A): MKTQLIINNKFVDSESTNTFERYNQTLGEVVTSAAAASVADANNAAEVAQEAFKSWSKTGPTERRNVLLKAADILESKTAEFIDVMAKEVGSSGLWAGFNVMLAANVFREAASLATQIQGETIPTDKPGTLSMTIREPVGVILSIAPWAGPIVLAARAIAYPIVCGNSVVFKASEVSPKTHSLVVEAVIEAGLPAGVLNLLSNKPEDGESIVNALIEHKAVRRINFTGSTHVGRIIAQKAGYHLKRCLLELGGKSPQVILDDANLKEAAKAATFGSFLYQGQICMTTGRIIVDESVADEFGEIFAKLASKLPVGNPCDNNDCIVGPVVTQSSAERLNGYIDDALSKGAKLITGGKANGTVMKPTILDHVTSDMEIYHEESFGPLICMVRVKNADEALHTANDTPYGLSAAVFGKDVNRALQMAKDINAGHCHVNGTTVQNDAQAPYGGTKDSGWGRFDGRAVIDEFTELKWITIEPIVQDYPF
Source text: The primers used for the single amino acid mutant were as follows: N149A, forward primer, 5′-ATAGCACCGTGGGCCGGGCCTATTGTATTA-3′; reverse primer, 5′-TAATACAATAGGCCCGGCCCACGGTGCTAT-3′; V153A, forward primer, 5′-AATGGGCCTATTGTATTAGCGGCTCGG-3′; reverse primer, 5′-CCGAGCCGCTAATACAATAGGCCCATT-3′; E175A, forward primer, 5′-[…]-3′, reverse primer, 5′-GTTGGGACAGTCTTCCAGCCC-3′; E175A, forward primer, 5′-ATGCTCCACCAAATTGGGCAC-3′; reverse primer, 5′-TTTAGGACTTACTTCTGAAGCTTTAAA-3′. The PCR was performed using Pfu polymerase, and the cycling parameters were: 95 °C for 5 min (one cycle), 95 °C for 30 s, and 68 °C for 12 min (12 cycles). […]
(§1) The activity of the purified proteins was determined using SAL as a substrate. […] The SALDan activity was monitored as the rate of appearance of NADH at 340 nm spectrophotometrically. The specific activity of the enzyme (units.mg^−1.min^−1) was expressed as the amount of enzyme required to produce 1 μM of NADH under the assay conditions. The influence of pH on the activity was determined using the protocol described above, with the exception of replacing the Tris-HCl buffer with 50 mM sodium acetate (pH 3.0–5.0), 50 mM 2-(N-morpholino)ethanesulfonic acid (pH 5.0–7.5), 50 mM HEPES (pH 8.0–8.5), 50 mM glycine (pH 9.0–10.0), or 50 mM sodium phosphate (pH 11.0)[52]. […]

SALDan = SALDan (Alteromonas naphthalenivorans, UniProt F5Z5S7); assay: Kinetics assay of wild-type recombinant SALDan (NADH appearance at 340 nm)
Chain of SALDan (F5Z5S7 entry or part of it): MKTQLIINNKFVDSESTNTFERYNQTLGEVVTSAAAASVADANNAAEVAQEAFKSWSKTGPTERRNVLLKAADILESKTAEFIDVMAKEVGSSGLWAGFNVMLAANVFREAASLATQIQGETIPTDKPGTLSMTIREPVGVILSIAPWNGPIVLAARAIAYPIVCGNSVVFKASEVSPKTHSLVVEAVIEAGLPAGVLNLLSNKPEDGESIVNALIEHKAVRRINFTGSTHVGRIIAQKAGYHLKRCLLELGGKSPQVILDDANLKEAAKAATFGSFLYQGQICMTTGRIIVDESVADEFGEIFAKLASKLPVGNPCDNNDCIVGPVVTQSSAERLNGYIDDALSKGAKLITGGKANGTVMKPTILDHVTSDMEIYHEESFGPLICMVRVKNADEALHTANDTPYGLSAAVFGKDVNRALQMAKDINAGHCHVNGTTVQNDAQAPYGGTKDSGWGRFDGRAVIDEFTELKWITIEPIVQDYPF
Protocol: (§2) The activity of the purified proteins was determined using SAL as a substrate. A reaction volume of 500 μL was prepared in a microfuge tube containing purified SALDan (0.1 μM), SAL (100 μM), and NAD^+ (100 μM) dissolved in 50 mM HEPES (pH 7.5) containing 150 mM NaCl. The SALDan activity was monitored as the rate of appearance of NADH at 340 nm spectrophotometrically. The specific activity of the enzyme (units.mg^−1.min^−1) was expressed as the amount of enzyme required to produce 1 μM of NADH under the assay conditions. The influence of pH on the activity was determined using the protocol described above, with the exception of replacing the […] buffer with 50 mM sodium acetate (pH 3.0–5.0), 50 mM 2-(N-morpholino)ethanesulfonic acid (pH 5.0–7.5), 50 mM HEPES (pH 8.0–8.5), 50 mM glycine (pH 9.0–10.0), or 50 mM sodium phosphate (pH 11.0)[52]. All assays were performed at the optimal temperature. To determine the influence of temperature on the enzymatic activity, the reactions were performed at 15, 20, 25, 30, 35, 40, and 45 °C, respectively.
(§3) For kinetic studies of aldehydes, the initial velocities of the enzymatic reactions were examined by varying the concentrations of various aromatic as well as aliphatic aldehydes in the presence of NAD^+ (100 μM) and the enzyme (0.1 μM) under optimal conditions. For substrates that absorb at 340 nm, thus interfering with the calculation of the initial rate, their molar coefficients (ε) were calculated as described previously[64] and are presented in Table S1. The apparent kinetic parameters were calculated using the equation: […]
(§4) The apparent kinetic parameters for NAD^+ were determined at a fixed concentration of SAL (50 μM) and a varying concentration of NAD^+ (0–500 μM). The apparent Km and Vmax values were calculated by using the equation: […]
(§5) All the activity data were determined by three separate experiments with at least three technical replicates.

SALDan E175A = biological target: T2, SALDan E175A (Alteromonas naphthalenivorans, UniProt F5Z5S7, E175A); assay: Kinetics assay of SALDan mutant E175A; conditions: for change of apparent Km value / change of kcat/Km (catalytic efficiency): E175A mutant versus wild-type
T2 sequence (F5Z5S7 1-483 E175A): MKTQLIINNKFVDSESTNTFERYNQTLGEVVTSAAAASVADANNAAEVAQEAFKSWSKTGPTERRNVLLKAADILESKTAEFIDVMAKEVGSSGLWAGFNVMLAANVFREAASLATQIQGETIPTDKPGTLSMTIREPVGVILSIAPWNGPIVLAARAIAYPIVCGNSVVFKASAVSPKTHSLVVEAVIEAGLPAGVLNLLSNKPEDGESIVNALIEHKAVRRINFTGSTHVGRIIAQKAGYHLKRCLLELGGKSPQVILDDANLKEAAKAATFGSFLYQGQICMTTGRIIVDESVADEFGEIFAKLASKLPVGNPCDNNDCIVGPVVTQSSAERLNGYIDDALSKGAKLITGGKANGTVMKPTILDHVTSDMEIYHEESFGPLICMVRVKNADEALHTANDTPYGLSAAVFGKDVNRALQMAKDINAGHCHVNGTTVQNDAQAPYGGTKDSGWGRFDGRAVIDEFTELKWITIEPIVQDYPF
Source text: (§6) The primers used for the single amino acid mutant were as follows: N149A, forward primer, 5′-ATAGCACCGTGGGCCGGGCCTATTGTATTA-3′; reverse primer, 5′-TAATACAATAGGCCCGGCCCACGGTGCTAT-3′; V153A, forward primer, 5′-AATGGGCCTATTGTATTAGCGGCTCGG-3′; reverse primer, 5′-CCGAGCCGCTAATACAATAGGCCCATT-3′; E175A, forward primer, 5′-[…]-3′, reverse primer, 5′-GTTGGGACAGTCTTCCAGCCC-3′; E175A, forward primer, 5′-ATGCTCCACCAAATTGGGCAC-3′; reverse primer, 5′-TTTAGGACTTACTTCTGAAGCTTTAAA-3′. The PCR was performed using Pfu polymerase, and the cycling parameters were: 95 °C for 5 min (one cycle), 95 °C for 30 s, and 68 °C for 12 min (12 cycles). After amplification, the PCR mixture was digested with DpnI and then transformed into E. coli BL21(DE3) by electroporation. The mutants were confirmed by DNA sequencing.
as §2, §3, §4, §5

SALDan V153A = biological target: T3, SALDan V153A (Alteromonas naphthalenivorans, UniProt F5Z5S7, V153A); assay: Kinetics assay of SALDan mutant V153A; conditions: for effect on the kinetic parameters: V153A mutant versus wild-type
T3 sequence (F5Z5S7 1-483 V153A): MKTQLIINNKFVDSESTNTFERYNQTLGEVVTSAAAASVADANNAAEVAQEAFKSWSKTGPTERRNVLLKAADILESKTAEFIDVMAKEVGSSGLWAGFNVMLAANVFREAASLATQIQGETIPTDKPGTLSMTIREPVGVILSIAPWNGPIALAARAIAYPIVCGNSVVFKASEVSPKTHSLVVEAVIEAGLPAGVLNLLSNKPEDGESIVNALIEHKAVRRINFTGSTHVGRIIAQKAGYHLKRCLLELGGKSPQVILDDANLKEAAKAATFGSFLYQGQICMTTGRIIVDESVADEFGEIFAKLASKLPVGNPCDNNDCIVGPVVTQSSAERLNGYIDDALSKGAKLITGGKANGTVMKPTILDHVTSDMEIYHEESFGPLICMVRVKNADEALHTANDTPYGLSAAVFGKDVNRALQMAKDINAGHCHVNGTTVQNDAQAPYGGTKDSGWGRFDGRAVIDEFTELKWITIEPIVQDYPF
Source text: as §6, §1, §3

SMILES | Ki (SALDan N149A) [µM] | change of catalytic efficiency compared with the wild-type protein (SALDan N149A; N149A mutant) | Ki (SALDan) [µM] | activity relative to the maximal velocity (SALDan; wild-type, assayed at 200 μM substrate, substrate inhibition) | substrate concentration at which the highest velocity is achieved (SALDan; wild-type, velocity versus substrate plot) [µM] | Ki (SALDan E175A) [µM] | change of apparent Km value (SALDan E175A) | change of kcat/Km (catalytic efficiency) (SALDan E175A) | Ki (SALDan V153A) [µM] | effect on the kinetic parameters (SALDan V153A) | increase of Km (SALDan E175A; mutation of Glu175 versus wild-type (Discussion)) [fold]
O=Cc1ccccc1O [Salicylaldehyde] | 447 ± 52.6 | decreased by about three times | 379 ± 45.2 | approximately 80% | 40 | 462 ± 51.4 | increased | decreased by six times | 428 ± 49.4 | no significant effect | 
NC(=O)c1ccc[n+]([C@@H]2O[C@H](COP(=O)([O-])OP(=O)(O)OC[C@H]3O[C@@H](n4cnc5c(N)ncnc54)[C@H](O)[C@@H]3O)[C@@H](O)[C@H]2O)c1 [NAD^+, nicotinamide adenine dinucleotide] |  |  |  |  |  |  | increased by about two times | decreased by four times |  | no significant effect | 5
